The record followed here is publication PMC4924691, “Inhibition of the p53/hDM2 protein-protein interaction by cyclometallated iridium(III) compounds” (Oncotarget, 2016).

One test has as its system A431. Particulars: read-out: IC50 (MTT), A431; human colon carcinoma (so in the source), p53 wt, 72 h. Here is the method:
(§1) The cytotoxicity of 1 towards ten cancers cell lines with different p53 statuses (wt, mut or null) was subsequently examined assessed using the MTT assay (Supplementary Table S2).
(§2) Inhibition of cell growth was measured using the MTT reagent (3-(4, 5-dimethylthiazol-2-yl)-2, 5-diphenyltetrazolium bromide). Different cell lines with variable expression levels of p53 protein (A375, A549, HeLa, A2780, A431, MCF7, MD-MBA-231, MD-MBA-468, T47D and H1299 cell lines) were plated onto 96-well plates at a density of 4, 000 cells/well overnight prior to the addition of 1 at different concentrations ranging from 0.01–100 μM for a further 72 h. 10 μL MTT reagent (5 mg/mL) was added to the wells and the cells were incubated for an additional 4 h before 100 μL of DMSO was added to the wells. The absorbance of each well was read on a SpectraMax M5 microplate reader (Molecular Devices) at the wavelength of 570 nm.

Another test concerns A375. The following applies: read-out: IC50 (MTT), A375; human malignant melanoma, p53 wt, 72 h. Here is the method: as §1, §2
A further test has as its system T47D. Particulars: read-out: IC50 (MTT), T47D; human breast carcinoma, p53 mut, 72 h. Here is the method: as §1, §2
In a further test the test system is H1299. The following applies: read-out: IC50 (MTT), H1299; human lung carcinoma, p53 null, 72 h. The method, then: as §1, §2
Another test relates to MCF7. The following applies: read-out: IC50 (MTT), MCF7; human breast carcinoma, p53 wt, 72 h. The method, then: as §1, §2
A further test relates to A549. The following applies: read-out: IC50 (MTT), A549; human lung carcinoma, p53 wt, 72 h. The method, then:
as §1, §2

Test [1] relates to p53 and hDM2 protein expression levels. Nature of the test: Immunoblotting of p53 and hDM2 protein expression in A375 cells. In kind it is cell-based, human. Particulars: 6 h, up to the highest concentration of 1 μM. Here is the method: To assess whether 1 suppressed p53 or hDM2 protein expression levels, resulting in a decrease in the levels of precipitated protein detected in the pull-down assay, an immunoblotting experiment was performed.
On the technique in general: Immunoblotting shows a protein as a band on a membrane.

A further test addresses p53/hDM2 PPI (Homo sapiens, UniProt Q00987). Particulars: read-out: IC50, decrease of BRET (p53-HaloTag / NanoLuc-hDM2); A375 cells, 6 h.

p53/hDM2 PPI, sequence (Q00987 whole entry): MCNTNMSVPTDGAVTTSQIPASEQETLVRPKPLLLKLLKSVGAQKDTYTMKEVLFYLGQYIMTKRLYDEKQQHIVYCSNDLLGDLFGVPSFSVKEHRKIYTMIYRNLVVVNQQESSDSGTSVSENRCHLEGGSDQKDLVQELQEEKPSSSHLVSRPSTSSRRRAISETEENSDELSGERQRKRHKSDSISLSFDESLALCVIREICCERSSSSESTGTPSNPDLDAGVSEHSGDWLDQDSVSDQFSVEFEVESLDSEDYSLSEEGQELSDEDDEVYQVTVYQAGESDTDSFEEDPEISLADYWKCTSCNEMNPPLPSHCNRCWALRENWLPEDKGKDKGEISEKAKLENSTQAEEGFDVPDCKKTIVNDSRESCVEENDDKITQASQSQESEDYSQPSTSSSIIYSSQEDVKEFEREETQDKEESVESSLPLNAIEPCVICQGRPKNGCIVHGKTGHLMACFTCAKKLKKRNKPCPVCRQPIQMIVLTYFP
Method for p53/hDM2 PPI: A NanoBRET protein:protein interaction system (Promega) was used to detect p53/hDM2 protein-protein interactions by measuring energy transfer from a bioluminescent protein donor to a fluorescent protein acceptor. […] The transfected cells were replated in a white 96-well plate with HaloTag® NanoBRET 618 ligand (100 nM) in Opti-MEM® I reduced serum medium with 4% fetal bovine serum (FBS) and incubated overnight. […] 25 μL of 1X Nano-Glo® substrate in Opti-MEM® I reduced serum medium was added to the wells. The plate was then measured using 460 nm filter and 610 nm filters in SpectraMax M5 microplate reader (Molecular Devices).

Take `CCc1ccc2[c](c1)[Ir-3]13([c]4cc(CC)ccc4-c4cccc[n+]41)([n+]1ccccc1-2)[n+]1ccc(Cl)c2ccc4c(Cl)cc[n+]3c4c21.F[P-](F)(F)(F)(F)F` [Compound 1, 4,7-dichloro-1, 10-phenanthrolinebis(2-(4-ethylphenyl)pyridine)iridium(III) hexafluorophosphate]: the IC50 in the test on A431 stood at 416 ± 37.4 nM; with A375, 647 ± 35.4 nM; with T47D, 783 ± 483 nM; in the test on H1299, 2200 ± 38.3 nM; in the test on MCF7, 547 ± 41 nM; in the test on A549 it was 232 ± 21.8 nM. Further, the IC50 on p53/hDM2 PPI is about 1000 nM. Besides, the “effect on hDM2 and p53 protein expression levels” value in test [1] was “no effect”.
